target: T1, Renin (Homo sapiens, UniProt P00797); assay: The compound was evaluated in vitro for inhibition of human plasma renin at pH 7.4.; assay type: cell-free
T1 sequence (P00797 whole entry): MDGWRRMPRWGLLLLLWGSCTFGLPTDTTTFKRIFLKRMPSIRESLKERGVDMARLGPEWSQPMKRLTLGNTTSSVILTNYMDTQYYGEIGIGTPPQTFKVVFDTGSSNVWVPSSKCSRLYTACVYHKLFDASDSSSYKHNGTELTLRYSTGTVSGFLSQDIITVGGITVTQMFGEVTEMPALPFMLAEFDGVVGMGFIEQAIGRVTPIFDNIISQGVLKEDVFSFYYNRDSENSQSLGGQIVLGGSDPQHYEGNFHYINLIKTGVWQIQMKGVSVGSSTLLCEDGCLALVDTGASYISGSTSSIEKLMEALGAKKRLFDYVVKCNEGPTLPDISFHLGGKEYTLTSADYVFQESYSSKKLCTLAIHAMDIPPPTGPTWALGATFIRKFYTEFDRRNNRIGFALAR

IC50	Compound
14 µM	CC(C)(C)OC(=O)N[C@@H](Cc1ccccc1)C(=O)N[C@H]1CCC(=O)NCCCC(=O)[C@H](O)[C@H](CC2CCCCC2)NC1=O
9.2 µM	CC(C)(C)OC(=O)N[C@@H](Cc1ccccc1)C(=O)N[C@H]1CNC(=O)CCCOC(=O)[C@H](O)[C@H](CC2CCCCC2)NC1=O
0.59 µM	CC(C)(C)OC(=O)N[C@@H](Cc1ccccc1)C(=O)N[C@H]1CNC(=O)CCCCOC(=O)[C@H](O)[C@H](CC2CCCCC2)NC1=O
7 µM	CC(C)(C)OC(=O)N[C@@H](Cc1ccccc1)C(=O)N[C@H]1CCC(=O)NCCCOC(=O)[C@H](O)[C@H](CC2CCCCC2)NC1=O
0.65 µM	CC(C)(C)OC(=O)N[C@@H](Cc1ccccc1)C(=O)N[C@H]1CCC(=O)NCCC[C@H](O)[C@H](O)[C@H](CC2CCCCC2)NC1=O
> 20 µM	CC(C)(C)OC(=O)N[C@@H](Cc1ccccc1)C(=O)N[C@H]1CCC(=O)NCCCC2(OCCO2)[C@H](O)[C@H](CC2CCCCC2)NC1=O
0.61 µM	CC(C)(C)OC(=O)N[C@@H](Cc1ccccc1)C(=O)N[C@H]1CCC(=O)NCCOC(=O)[C@H](O)[C@H](CC2CCCCC2)NC1=O
> 20 µM	CC(C)(C)OC(=O)N[C@@H](Cc1ccccc1)C(=O)N[C@H]1CCC(=O)NCCC[C@@H](O)[C@H](O)[C@H](CC2CCCCC2)NC1=O

Reference: ChEMBL document CHEMBL1125196, “Design and synthesis of P2-P1'-linked macrocyclic human renin inhibitors” (J Med Chem, 1991)
